The subject of the experiment is HIV-1 NL4.3 strain. Put plainly: C8166 HIV-1 Luciferase Assay (EC50). It counts as cell-based. The note with it: Human immunodeficiency virus 1, C8166, 72 h, read-out: Antiviral potency EC50. An excerpt: C8166 HIV-1 Luciferase Assay (EC50)
C8166 cells are derived from a human T-lymphotrophic virus type 1 immortalized but nonexpressing line of cord blood lymphocytes (obtained from J. Sullivan and originally produced in the laboratory of R. Gallo, Virology 1983; 129: 51-64) and are highly permissive to HIV-1 infection. The pGL3 Basic LTR/TAR plasmid is made by introducing the HIV-1 HxB2 LTR sequence from nucleotide −138 to +80 (Sca1-HindIII) upstream of the luciferase gene in the pGL3 Basic Vector (a promoterless luciferase expression vector from Promega catalogue # E1751) with the gene for blasticidine resistance cloned in. The reporter cells are made by electroporating C8166 cells with pGL3 Basic LTR/TAR and selecting positive clones with blasticidine. Clone C8166-LTRIuc #A8-F5-G7 is selected by 3 consecutive rounds of limiting dilution under blasticidine selection. Cultures are maintained in complete media (consisting of: Roswell Park Memorial Institute medium (RPMI) 1640+10% FBS+10^−5 M β-mercaptoethanol+10 μg/ml gentamycin) with 5 μg/ml blasticidine, however, blasticidine selection is removed from the cells before performing the viral replication assay.
Luciferase Assay Protocol
Serial dilutions of HIV-1 inhibitor compounds are prepared in complete media from 10 mM DMSO stock solutions. Eleven serial dilutions of 2.5× are made at 8× desired final concentration in a 1 mL deep well titer plate (96 wells). The 12th well contains complete media with no inhibitor and serves as the positive control. All samples contain the same concentration of DMSO (≦0.1% DMSO). A 25 μL aliquot of inhibitor is added, to triplicate wells, of a 96 well tissue culture treated clear view black microtiter plate (Corning Costar catalogue # 3904). The total volume per well is 200 μL of media containing cells and inhibitor. The last row is reserved for uninfected C8166 LTRluc cells to serve as the background blank control and the first row is media alone.
C8166 LTRluc cells are counted and placed in a minimal volume of complete RPMI 1640 in a tissue culture flask (ex. 30×10^6 cells in 10 mL media/25 cm^2 flask). Cells are infected with HIV-1 or virus with variant integrase generated as described below at a […] (moi) of 0.005. Cells are incubated for 1.5 hours at 37° C. on a rotating rack in a 5% CO2 incubator and re-suspended in complete RPMI to give a final concentration of 25,000-cells/175 μL. 175 μL of cell mix is added to wells of a 96 well microtiter plate containing 25 μL 8× inhibitors. 25,000 uninfected C8166-LTRluc cells/well in 200 μL complete RPMI are added to the last row for background control. Cells are incubated at 37° C. in 5% CO2 incubator for 3 days.
50 μL Steady Glo (luciferase substrate T1/2=5 hours Promega catalogue # E2520) is added to each well of the 96 well plate. The relative light units (RLU) of luciferase is determined using the LUMIstar Galaxy luminometer (BMG LabTechnologies). Plates are read from the bottom for 2 seconds per well with a gain of 240.
The level of inhibition (% inhibition) of each well containing inhibitor is calculated as follows: […]
The calculated % inhibition values are used to determine EC50, slope factor (n) and maximum inhibition (Imax) by the non-linear regression routine NLIN procedure of SAS using the following equation: […]
As a reminder, the EC50 is the concentration giving half of the maximal effect. Take `Cc1nc(-c2cn3cc(Cl)ccc3n2)c(C)c(-c2ccc(Cl)cc2)c1[C@H](OC(C)(C)C)C(=O)O` [compound 1438]: the EC50 was found to be 0.94 nM.

Consider `Cc1nc(-c2nc3cc(Cl)ccc3[nH]2)c(C)c(-c2ccc(Cl)cc2F)c1[C@H](OC(C)(C)C)C(=O)O` [compound 1445], for which the concentration giving a half-maximal response (EC50) came to 1.9 nM.

For `Cc1nc(-c2nc3cc(Cl)ccc3[nH]2)c(C)c(-c2ccccc2Cl)c1[C@H](OC(C)(C)C)C(=O)O` [compound 1446], the EC50 came to 1.9 nM.

Regarding `Cc1nc(C(=O)NCC2CCCC2)c(C)c(-c2ccc3c(c2)NCCO3)c1[C@H](OC(C)(C)C)C(=O)O` [compound 1293], the EC50 was 24 nM.

Take `Cc1ccc(C(F)(F)F)c(C(=O)Nc2nc(C)c([C@H](OC(C)(C)C)C(=O)O)c(-c3ccc(Cl)cc3)c2C)c1` [compound 1465]: the 50% effective concentration (EC50) amounted to 11 nM.

For the molecule `Cc1noc(C)c1-c1ccc(-c2nc(C)c([C@H](OC(C)(C)C)C(=O)O)c(-c3ccc(Cl)cc3)c2C#N)cc1` [compound 2005], the EC50 amounted to 19 nM.

`Cc1nc(C(=O)NCC2CCC2)c(C)c(-c2ccc(Cl)cc2)c1[C@H](OC(C)(C)C)C(=O)O` [compound 1307]: the EC50 amounted to 17 nM.

On to `COc1nc(C)ccc1C(=O)Nc1nc(C)c([C@H](OC(C)(C)C)C(=O)O)c(-c2ccc(Cl)cc2)c1C` [compound 1467], for which the EC50 was found to be 4.3 nM.

Consider `CCn1c(-c2nc(C)c([C@H](OC(C)(C)C)C(=O)O)c(-c3ccc(Cl)cc3)c2C)nc2ccccc21` [compound 1440], for which the EC50 is 2.4 nM.

Regarding `Cc1nc(C(=O)NCC2CCCC2)c(C)c(-c2ccc3c(c2Cl)NCCO3)c1[C@H](OC(C)(C)C)C(=O)O` [compound 1256], the EC50 was 8.1 nM.

Regarding `Cc1nc(C(=O)N[C@H]2CC[C@H](C)CC2)c(C)c(-c2ccc(Br)cc2)c1[C@H](OC(C)(C)C)C(=O)O` [compound 1456], the EC50 was 4.2 nM.

With `Cc1nc(-c2nc3ccc(Cl)cn3c2C)c(C)c(-c2ccc(Cl)cc2)c1[C@H](OC(C)(C)C)C(=O)O` [compound 1469], the EC50 turned out to be 0.61 nM.

With `Cc1nc(C(=O)N[C@H]2CC[C@H](C)CC2)c(C)c(-c2cccc(F)c2Cl)c1[C@H](OC(C)(C)C)C(=O)O` [compound 1454], the EC50 was determined as 3.7 nM.

Regarding `COc1cc2nc(-c3nc(C)c([C@H](OC(C)(C)C)C(=O)O)c(-c4ccc(Cl)cc4)c3C)n(C)c2cc1Cl` [compound 1441], the EC50 amounted to 4.9 nM.

For `Cc1nc(C(=O)NC2Cc3ccccc3C2)c(C)c(-c2ccc(Cl)cc2)c1[C@H](OC(C)(C)C)C(=O)O` [compound 1145], the EC50 was 35 nM.

In the case of `Cc1nc(C(=O)NC2CCC3(CC2)CC3)c(C)c(-c2ccc(Cl)cc2F)c1[C@H](OC(C)(C)C)C(=O)O` [compound 1452], the EC50 came to 5.7 nM.

`Cc1ccc(NC(=O)c2nc(C)c([C@H](OC(C)(C)C)C(=O)O)c(-c3ccc(Cl)cc3)c2C)cc1` [compound 1167]: the EC50 was found to be 9.3 nM.

For `Cc1nc(C(=O)N[C@H]2CC[C@H](C)CC2)c(C)c(-c2ccc3c(c2)SCCO3)c1[C@H](OC(C)(C)C)C(=O)O` [compound 1459], the EC50 was found to be 4 nM.

With `Cc1nc(C(=O)NC(C)(C)c2ccccc2)c(C)c(-c2ccc(Cl)cc2)c1[C@H](OC(C)(C)C)C(=O)O` [compound 1154], the EC50 turned out to be 27 nM.

Turning to `Cc1nc(C(=O)Nc2nc3c(s2)CCC3)c(C)c(-c2ccc(Cl)cc2)c1[C@H](OC(C)(C)C)C(=O)O` [compound 1276], the EC50 stood at 68 nM.

With `Cc1nc(NC(=O)[C@H]2CC[C@H](C)CC2)c(C)c(-c2ccc(Cl)cc2)c1[C@H](OC(C)(C)C)C(=O)O` [compound 1464], the EC50 amounted to 6.2 nM.

`Cc1nc(C(=O)N2Cc3ccccc3C2)c(C)c(-c2ccc(Cl)cc2)c1[C@H](OC(C)(C)C)C(=O)O` [compound 1471]: the EC50 worked out at 2.4 nM.

As to `Cc1nc(C(=O)NC2CCC(C)(C)CC2)c(C)c(-c2ccc(Br)cc2)c1[C@H](OC(C)(C)C)C(=O)O` [compound 1457], the EC50 came to 4 nM.

Take `Cc1nc(-c2ccc3scnc3c2)c(C)c(-c2ccc(Cl)cc2)c1[C@H](OC(C)(C)C)C(=O)O` [compound 1141]: the EC50 turned out to be 26 nM.

Turning to `Cc1nc(C(=O)Nc2nnc(C3CC3)s2)c(C)c(-c2ccc(Cl)cc2)c1[C@H](OC(C)(C)C)C(=O)O` [compound 1316], the EC50 came out at 47 nM.

As for `Cc1nc(-c2cccc(-c3ccnn3C)c2)c(C)c(-c2ccc(Cl)cc2)c1[C@H](OC(C)(C)C)C(=O)O` [compound 1124], the EC50 is 81 nM.

Turning to `Cc1nc(C(=O)NCC2CCCC2)c(C)c(-c2ccc(Cl)cc2)c1[C@H](OC(C)(C)C)C(=O)O` [compound 1208], the EC50 came out at 8.9 nM.

On to `Cc1nc(C(=O)NC(C)(C)C)c(C)c(-c2ccc(Cl)cc2)c1[C@H](OC(C)(C)C)C(=O)O` [compound 1143], for which the EC50 is 21 nM.

Take `COCc1nc(-c2ccc(C)c(C)c2)c(C)c(-c2ccc(Cl)cc2)c1[C@H](OC(C)(C)C)C(=O)O` [compound 2003]: the EC50 turned out to be 17 nM.

On to `COc1cc(Cl)ccc1C(=O)Nc1nc(C)c([C@H](OC(C)(C)C)C(=O)O)c(-c2ccc(Cl)cc2)c1C` [compound 1462], for which the EC50 came to 1.2 nM.

Consider `Cc1nc(-c2ccc(-c3cncnc3)cc2)c(C)c(-c2ccc3c(c2C)CCCO3)c1[C@H](OC(C)(C)C)C(=O)O` [compound 1102], for which the EC50 was found to be 17 nM.

For `Cc1nc(-c2cccc(-c3cccnc3)c2)c(C)c(-c2ccc3c(c2)CCCO3)c1[C@H](OC(C)(C)C)C(=O)O` [compound 1009], the EC50 came out at 20 nM.

In the case of `Cc1nc(C(=O)N[C@H]2CC[C@H](C)CC2)c(C)c(-c2ccc(Cl)cc2)c1[C@H](OC(C)(C)C)C(=O)O` [compound 1142], the 50% effective concentration (EC50) was found to be 7.9 nM.

Take `CCC(C)(C)O[C@H](C(=O)O)c1c(C)nc(C(=O)N[C@H]2CC[C@H](C)CC2)c(C)c1-c1ccc(Cl)cc1` [compound 3005]: the EC50 was determined as 9.3 nM.

Take `Cc1nc(C(=O)NC2CCC3(CC2)CC3)c(C)c(-c2ccc(Cl)cc2)c1[C@H](OC(C)(C)C)C(=O)O` [compound 1444]: the EC50 is 9.2 nM.

As to `Cc1ccc(-c2nc(C)c([C@H](OC(C)(C)C)C(=O)O)c(-c3ccc(Cl)cc3)c2C)cc1C` [compound 1111], the half-maximal effective concentration (EC50) was determined as 15 nM.

As for `Cc1nc(NC(=O)C(C)(C)C)c(C)c(-c2ccc(Cl)cc2)c1[C@H](OC(C)(C)C)C(=O)O` [compound 1202], the EC50 was 31 nM.

Turning to `Cc1nc(NC(=O)c2oc3ccccc3c2C)c(C)c(-c2ccc(Cl)cc2)c1[C@H](OC(C)(C)C)C(=O)O` [compound 1463], the EC50 turned out to be 2.1 nM.

For `Cc1nc(-c2cccc(-c3ccnnc3)c2)c(C)c(-c2ccc3c(c2)CCCO3)c1[C@H](OC(C)(C)C)C(=O)O` [compound 1020], the EC50 turned out to be 49 nM.

For the molecule `Cc1nc(C(=O)NCCc2ccccc2)c(C)c(-c2ccc(Cl)cc2)c1[C@H](OC(C)(C)C)C(=O)O` [compound 1146], the EC50 was determined as 17 nM.

As for `Cc1nc2ccc(NC(=O)c3nc(C)c([C@H](OC(C)(C)C)C(=O)O)c(-c4ccc(Cl)cc4)c3C)cc2s1` [compound 1311], the EC50 is 26 nM.

Turning to `Cc1nc(C(=O)NC2CCC3(CC2)CC3)c(C)c(-c2ccc(Br)cc2)c1[C@H](OC(C)(C)C)C(=O)O` [compound 1458], the concentration giving a half-maximal response (EC50) was 6.9 nM.

On to `Cc1nc(-c2nc3ccc(Cl)cc3n2C)c(C)c(-c2ccc(Cl)cc2)c1[C@H](OC(C)(C)C)C(=O)O` [compound 1437], for which the EC50 amounted to 0.75 nM.

Regarding `Cc1nc(C(=O)Nc2ccc(C(F)(F)F)nc2)c(C)c(-c2ccc(Cl)cc2)c1[C@H](OC(C)(C)C)C(=O)O` [compound 1280], the EC50 was 22 nM.

With `Cc1nc(-c2nc3ccccc3n2C)c(C)c(-c2ccc(Br)cc2)c1[C@H](OC(C)(C)C)C(=O)O` [compound 1448], the EC50 came to 1.4 nM.

`Cc1nc(-c2ccc(OC(F)(F)F)cc2)c(C)c(-c2ccc(Cl)cc2)c1[C@H](OC(C)(C)C)C(=O)O` [compound 1132]: the half-maximal effective concentration (EC50) was found to be 9.4 nM.

Take `Cc1nc(-c2nc3ccccc3n2C2CC2)c(C)c(-c2ccc(Cl)cc2)c1[C@H](OC(C)(C)C)C(=O)O` [compound 1450]: the EC50 was 7.7 nM.

(Values after patent publication US8338441B2, “Inhibitors of human immunodeficiency virus replication” (priority 2009, dated 2012).)
